From patent US20120214847A1, “2-[1-PHENYL-5-HYDROXY-4a-SUBSTITUTED-HEXAHYDROCYCLOPENTA[F]INDAZOL-5-YL]ETHYL PHENYL DERIVATIVES AS GLUCOCORTICOID RECEPTOR LIGANDS” (Merck Sharp & Dohme Corp., priority 2009, published 2012)

These compounds were tested against T1, glucocorticoid receptor (Homo sapiens, UniProt P04150) (assay: Ligand binding assay (GRBind), 3H-dexamethasone displacement in HeLa cell lysate). Conditions: 3H-DEX tracer.
T1 construct: endogenous in cells; host or cells: HeLa (ATCC) cell lysate supernatant
T1 sequence (P04150 1-777): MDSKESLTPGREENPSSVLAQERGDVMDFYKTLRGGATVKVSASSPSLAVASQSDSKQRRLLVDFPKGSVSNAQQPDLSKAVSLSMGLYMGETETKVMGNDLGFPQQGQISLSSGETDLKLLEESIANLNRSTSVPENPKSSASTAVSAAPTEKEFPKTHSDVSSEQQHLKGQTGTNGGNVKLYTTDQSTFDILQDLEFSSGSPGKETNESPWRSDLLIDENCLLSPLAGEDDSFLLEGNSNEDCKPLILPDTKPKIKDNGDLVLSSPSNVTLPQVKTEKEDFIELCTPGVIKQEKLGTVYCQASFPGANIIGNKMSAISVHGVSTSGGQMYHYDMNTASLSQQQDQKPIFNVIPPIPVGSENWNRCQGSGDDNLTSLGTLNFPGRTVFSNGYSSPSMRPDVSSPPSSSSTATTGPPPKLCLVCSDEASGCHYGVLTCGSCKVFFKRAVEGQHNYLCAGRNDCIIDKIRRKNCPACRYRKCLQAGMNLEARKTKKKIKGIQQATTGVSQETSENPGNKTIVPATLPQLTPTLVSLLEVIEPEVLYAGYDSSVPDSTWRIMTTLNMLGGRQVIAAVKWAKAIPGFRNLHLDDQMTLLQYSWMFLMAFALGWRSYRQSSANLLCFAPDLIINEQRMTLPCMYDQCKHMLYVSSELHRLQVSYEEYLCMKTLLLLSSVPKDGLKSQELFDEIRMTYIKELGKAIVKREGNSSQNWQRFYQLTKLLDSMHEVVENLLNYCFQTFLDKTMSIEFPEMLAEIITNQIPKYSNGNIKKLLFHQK
How it was run: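 Cytosolic supernatant from HeLa cells in TEGM buffer (pH 7.2, with molybdate) was incubated overnight at 4 °C with 3H-dexamethasone (6 nM trace solution) and serially diluted compound, with 2% ethanol. Bound receptor was captured on hydroxylapatite, filtered and counted by scintillation. IC50s were calculated using dexamethasone as reference.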

Row | Compound | Ki [nM]
1 | NC(=O)CNC(=O)c1cc(F)cnc1CC[C@]1(O)CCC2=Cc3c(cnn3-c3ccc(F)cc3)C[C@@]21C1CC1 [Example 44, N-(2-Amino-2-oxoethyl)-2-{2-[(4aR,5R)-4a-cyclopropyl-1-(4-fluorophenyl)-5-hydroxy-1,4,4a,5,6,7-hexahydrocyclopenta[f]indazol-5-yl]ethyl}-5-fluoropyridine-3-carboxamide] | 4.6
2 | CC[C@]12Cc3cnn(-c4ccccc4)c3C=C1CC[C@@]2(O)CCc1cccc(F)c1C#N [Example 15, 2-{2-[(4aS,5R)-4a-Ethyl-5-hydroxy-1-phenyl-1,4,4a,5,6,7-hexahydrocyclopenta[f]indazol-5-yl]ethyl}-6-fluorobenzonitrile] | 1.28
3 | COc1ccnc(CC[C@]2(O)CCC3=Cc4c(cnn4-c4ccc(F)cc4)C[C@@]32C2CC2)c1C(F)C(N)=O (stereo partly drawn) [Example 66, 2-(2-{2-[(4aR,5R)-4a-Cyclopropyl-1-(4-fluorophenyl)-5-hydroxy-1,4,4a,5,6,7-hexahydrocyclopenta[f]indazol-5-yl]ethyl}-4-methoxypyridin-3-yl)-2-fluoroacetamide] | 1.82
4 | COc1cccc(CC[C@]2(O)CCC3=Cc4c(cnn4-c4ccc(F)cc4)C[C@@]32C2CC2)c1C(N)=O [Example 38, 2-{2-[(4aR,5R)-4a-Cyclopropyl-1-(4-fluorophenyl)-5-hydroxy-1,4,4a,5,6,7-hexahydrocyclopenta[f]indazol-5-yl]ethyl}-6-methoxybenzamide] | 1.25
5 | NC(=O)c1c(C2CC2)ccnc1CC[C@]1(O)CCC2=Cc3c(cnn3-c3ccc(F)cc3)C[C@@]21C1CC1 [Example 49, 4-Cyclopropyl-2-{2-[(4aR,5R)-4a-cyclopropyl-1-(4-fluorophenyl)-5-hydroxy-1,4,4a,5,6,7-hexahydrocyclopenta[f]indazol-5-yl]ethyl}pyridine-3-carboxamide] | 2.7
6 | CC[C@]12Cc3cnn(-c4ccc(F)cc4)c3C=C1CC[C@@]2(O)CCc1ncc(F)cc1C(N)=O [Example 53, 2-{2-[(4aS,5R)-4a-Ethyl-1-(4-fluorophenyl)-5-hydroxy-1,4,4a,5,6,7-hexahydrocyclopenta[f]indazol-5-yl]ethyl}-5-fluoropyridine-3-carboxamide] | 5.97
7 | CC[C@]12Cc3cnn(-c4ccc(F)cc4)c3C=C1CC[C@@]2(O)CCc1cncc(F)c1 [Example 21, (4aS,5R)-4a-Ethyl-1-(4-fluorophenyl)-5-[2-(5-fluoropyridin-3-yl)ethyl]-1,4,4a,5,6,7-hexahydrocyclopenta[f]indazol-5-ol] | 1.04
8 | CC[C@]12Cc3cnn(-c4cccnc4)c3C=C1CC[C@@]2(O)CCc1cccc(F)c1C(N)=O [Example 14, 2-{2-[(4aS,5R)-4a-Ethyl-5-hydroxy-1-(pyridin-3-yl)-1,4,4a,5,6,7-hexahydrocyclopenta[f]indazol-5-yl]ethyl}-6-fluorobenzamide] | 8.68
9 | CC[C@]12Cc3cnn(-c4ccc(F)cc4)c3C=C1CC[C@@]2(O)CC(O)c1ccccn1 (stereo partly drawn) [Example 68, (4aS,5R)-4a-Ethyl-1-(4-fluorophenyl)-5-[2-hydroxy-2-(pyridin-2-yl)ethyl]-1,4,4a,5,6,7-hexahydrocyclopenta[f]indazol-5-ol] | 2.72
10 | CC[C@]12Cc3cnn(-c4ccc(F)cc4)c3C=C1CC[C@@]2(O)CCc1ccccn1 [Example 16, (4aS,5R)-4a-Ethyl-1-(4-fluorophenyl)-5-[2-(pyridin-2-yl)ethyl]-1,4,4a,5,6,7-hexahydrocyclopenta[f]indazol-5-ol] | 2.22
11 | CC[C@]12Cc3cnn(-c4ccc(F)cc4)c3C=C1CC[C@@]2(O)CCc1ccccc1C(O)C(N)=O (stereo partly drawn) [Example 26, 2-(2-{2-[(4aS,5R)-4a-Ethyl-1-(4-fluorophenyl)-5-hydroxy-1,4,4a,5,6,7-hexahydrocyclopenta[f]indazol-5-yl]ethyl}phenyl)-2-hydroxyacetamide] | 3.82
12 | O[C@@]1(CCc2cc(C(F)(F)F)ccn2)CCC2=Cc3c(cnn3-c3ccc(F)cc3)C[C@@]21C1CC1 [Example 32, (4aR,5R)-4a-Cyclopropyl-1-(4-fluorophenyl)-5-{2-[4-(trifluoromethyl)pyridin-2-yl]ethyl}-1,4,4a,5,6,7-hexahydrocyclopenta[f]indazol-5-ol] | 2.26
13 | O=C(NC1(CO)CC1)c1ccccc1CC[C@]1(O)CCC2=Cc3c(cnn3-c3ccc(F)cc3)C[C@@]21C1CC1 [Example 46, 2-{2-[(4aR,5R)-4a-Cyclopropyl-1-(4-fluorophenyl)-5-hydroxy-1,4,4a,5,6,7-hexahydrocyclopenta[f]indazol-5-yl]ethyl}-N-[1-(hydroxymethyl)cyclopropyl]benzamide] | 1.99
14 | CC[C@]12Cc3cnn(-c4ccc(F)cc4)c3C=C1CC[C@@]2(O)CCc1ccc(F)cn1 [Example 19, (4aS,5R)-4a-Ethyl-1-(4-fluorophenyl)-5-[2-(5-fluoropyridin-2-yl)ethyl]-1,4,4a,5,6,7-hexahydrocyclopenta[f]indazol-5-ol] | 2.52
15 | CC[C@]12Cc3cnn(-c4cccnc4)c3C=C1CC[C@@]2(O)CCc1ccccc1C#N [Example 5, 2-{2-[(4aS,5R)-4a-Ethyl-5-hydroxy-1-(pyridin-3-yl)-1,4,4a,5,6,7-hexahydrocyclopenta[f]indazol-5-yl]ethyl}benzonitrile] | 2.01
16 | N#Cc1ccnc(CC[C@]2(O)CCC3=Cc4c(cnn4-c4ccc(F)cc4)C[C@@]32C2CC2)c1 [Example 35, 2-{2-[(4aR,5R)-4a-Cyclopropyl-1-(4-fluorophenyl)-5-hydroxy-1,4,4a,5,6,7-hexahydrocyclopenta[f]indazol-5-yl]ethyl}pyridine-4-carbonitrile] | 1.99
17 | CC[C@]12Cc3cnn(-c4cccnc4)c3C=C1CC[C@@]2(O)CCc1ccc(F)cc1C#N [Example 9, 2-{2-[(4aS,5R)-4a-Ethyl-5-hydroxy-1-(pyridin-3-yl)-1,4,4a,5,6,7-hexahydrocyclopenta[f]indazol-5-yl]ethyl}-5-fluorobenzonitrile] | 1.99
18 | CC[C@]12Cc3cnn(-c4ccc(F)cc4)c3C=C1CC[C@@]2(O)CC(O)c1ncccc1Cl (stereo partly drawn) [Example 70, (4aS,5R)-5-[2-(3-Chloropyridin-2-yl)-2-hydroxyethyl]-4a-ethyl-1-(4-fluorophenyl)-1,4,4a,5,6,7-hexahydrocyclopenta[f]indazol-5-ol] | 7.06
19 | CC[C@]12Cc3cnn(-c4ccc(F)cc4)c3C=C1CC[C@@]2(O)CCc1ccccc1S(C)(=O)=O [Example 42, (4aS,5R)-4a-Ethyl-1-(4-fluorophenyl)-5-{2-[2-(methylsulfonyl)phenyl]ethyl}-1,4,4a,5,6,7-hexahydrocyclopenta[f]indazol-5-ol] | 1.97
20 | CC[C@]12Cc3cnn(-c4ccc(F)cc4)c3C=C1CC[C@@]2(O)CCc1ccccc1S(=O)(=O)CC [Example 51, (4aS,5R)-4a-Ethyl-5-{2-[2-(ethylsulfonyl)phenyl]ethyl}-1-(4-fluorophenyl)-1,4,4a,5,6,7-hexahydrocyclopenta[f]indazol-5-ol] | 2.45
21 | N#Cc1ccccc1CC[C@]1(O)CCC2=Cc3c(cnn3-c3ccccc3)C[C@@]21C1CC1 [Example 27, 2-{2-[(4aR,5R)-4a-Cyclopropyl-5-hydroxy-1-phenyl-1,4,4a,5,6,7-hexahydrocyclopenta[f]indazol-5-yl]ethyl}benzonitrile] | 1
22 | N#Cc1cccnc1CC[C@]1(O)CCC2=Cc3c(cnn3-c3ccc(F)cc3)C[C@@]21C1CC1 [Example 31, 2-{2-[(4aR,5R)-4a-Cyclopropyl-1-(4-fluorophenyl)-5-hydroxy-1,4,4a,5,6,7-hexahydrocyclopenta[f]indazol-5-yl]ethyl}pyridine-3-carbonitrile] | 1.58
